Measured values from patent publication US11484559B2, “Kapok tree flower extract, and cosmetic, pharmaceutical or dermatological compositions containing same” (Laboratoires Expanscience, priority 2017, dated 2022).

Columns and labels:
[1] = test system: intracellular ROS (Reactive Oxygen Species); assay: Production of ROS in keratinocytes subjected to H2O2 stress (DCFH-DA probe); type: cell-based, human; conditions: for ROS Mean: H2O2 100 μM
Description: The antioxidant potential of the KPO extract was evaluated in an assay model of intracellular ROS (Reactive Oxygen Species) induced by pro-oxidising H2O2 stress. Normal human epidermal keratinocytes were pre-incubated for 24 hours with KPO extract at 0.001%, 0.002% or 0.005% (d.e.) or reference anti-inflammatory molecules Quercetin at 10 μM or Vitamin C at 500 μM. The cell layer was then contacted with a DCFH-DA probe prior to induction of oxidative stress by 100 μM of H2O2. The amount of ROS produced was evaluated by measuring the fluorescence emitted when the probe is oxidised. The results were analysed statistically by one-factor variance analysis followed by a Tukey test: **p<0.01; ***p<0.001.

Prostaglandin E2 (PGE2) = assay: Production of PGE2 in keratinocytes stimulated by PMA (ELISA); type: cell-based, human; conditions: indomethacin at 0.1 μM
Description: The keratinocytes were then stimulated by 10 μg/ml of PMA (Phorbol Myristate Acetate) and incubated overnight with KPO extract or reference molecules. […] The significance was evaluated by means of one-factor variance analysis followed by a Tukey test: *p<0.05; ***p<0.001; ns: non-significant p>0.05.

Collagen IV = assay: Gene expression in normal human dermal fibroblasts (RT-qPCR): Collagen IV; type: cell-based; conditions: TGFβ1 5 ng/ml
Description: (§1) The effect of the KPO extract was evaluated on the gene expression of markers involved in cell communication and in the organisation of the dermal extracellular matrix in the fibroblasts: normal human dermal fibroblasts were incubated for 6 hours or 24 hours with 0.0005% or 0.001% KPO extract (d.e.) or TGFβ1 at 5 ng/ml (positive control for dermal matrix induction markers). At the end of incubation, the gene expression of the following markers was analysed by RT-qPCR. • CTNNA1 (Catenin α): binds to cadherins to promote cellular interactions. • Syndecan: proteoglycan which consolidates cell/cell and cell/matrix interactions. • Laminin 5 (α3β3γ2): a molecule that assists adhesion to the basal membrane. • TNC (Tenacin C): extracellular matrix proteins involved in cohesion of the dermo-epidermal junction and which promote the synthesis of collagen VII. • SPARC: protein associated with various constituents of the extracellular matrix and which contributes to its organisation. • BGN (Biglycan): proteoglycan involved in the assembly of collagen fibres. • Versican: a major component of the ECM which plays a central role in the morphogenesis and maintenance of tissues. […]
(§2) The results are given as relative quantities (RQ) with respect to the untreated control. […]

Syndecan = assay: Gene expression in normal human dermal fibroblasts (RT-qPCR): Syndecan; type: cell-based; conditions: TGFβ1 5 ng/ml
Description: as §1, §2

Collagen III = assay: Gene expression in normal human dermal fibroblasts (RT-qPCR): Collagen III; type: cell-based; conditions: TGFβ1 5 ng/ml
Description: as §1, §2

LOXL = assay: Gene expression in normal human dermal fibroblasts (RT-qPCR): LOXL; type: cell-based; conditions: TGFβ1 5 ng/ml
Description: as §1, §2

Dermatopontin = assay: Gene expression in normal human dermal fibroblasts (RT-qPCR): Dermatopontin; type: cell-based; conditions: TGFβ1 5 ng/ml
Description: as §1, §2

BGN (Biglycan) = assay: Gene expression in normal human dermal fibroblasts (RT-qPCR): BGN; type: cell-based; conditions: TGFβ1 5 ng/ml
Description: as §1, §2

Collagen I = assay: Gene expression in normal human dermal fibroblasts (RT-qPCR): Collagen I; type: cell-based; conditions: TGFβ1 5 ng/ml
Description: as §1, §2

Versican = assay: Gene expression in normal human dermal fibroblasts (RT-qPCR): Versican; type: cell-based; conditions: TGFβ1 5 ng/ml
Description: as §1, §2

SPARC = assay: Gene expression in normal human dermal fibroblasts (RT-qPCR): SPARC; type: cell-based; conditions: TGFβ1 5 ng/ml
Description: as §1, §2

TNC (Tenacin C) = assay: Gene expression in normal human dermal fibroblasts (RT-qPCR): TNC; type: cell-based; conditions: TGFβ1 5 ng/ml
Description: as §1, §2

Fibronectin = assay: Gene expression in normal human dermal fibroblasts (RT-qPCR): Fibronectin; type: cell-based; conditions: TGFβ1 5 ng/ml
Description: as §1, §2

Collagen VII = assay: Gene expression in normal human dermal fibroblasts (RT-qPCR): Collagen VII; type: cell-based; conditions: TGFβ1 5 ng/ml
Description: as §1, §2

Elastin = assay: Gene expression in normal human dermal fibroblasts (RT-qPCR): Elastin; type: cell-based; conditions: TGFβ1 5 ng/ml
Description: as §1, §2

CTNNA1 (Catenin α) = assay: Gene expression in normal human dermal fibroblasts (RT-qPCR): CTNNA1; type: cell-based; conditions: TGFβ1 5 ng/ml
Description: as §1, §2

O=c1c(O)c(-c2ccc(O)c(O)c2)oc2cc(O)cc(O)c12 [Quercetin]
ROS change vs H2O2 ([1]; Quercetin at 10 μmol/l): −90% vs H2O2 ***
ROS Mean ([1]; Quercetin at 10 μmol/l): 12959.361 Arbitrary Unit

O=C1O[C@H]([C@@H](O)CO)C(O)=C1O [Vit C, Vitamin C]
ROS change vs H2O2 ([1]; Vit C 500 μM): −90% vs H2O2 ***
ROS Mean ([1]; Vit C 500 μM): 12807.703 Arbitrary Unit

COc1ccc2c(c1)c(CC(=O)O)c(C)n2C(=O)c1ccc(Cl)cc1 [Indo, indomethacin]
PGE2 change vs PMA (Prostaglandin E2 (PGE2)): −77% vs PMA ***
PGE2 Mean (Prostaglandin E2 (PGE2); PMA stimulated): 181.780 (pg/ml)/OD neutral red

TGFβ1: positive control for dermal matrix induction markers
Collagen IV Degree of expression (Relative Quantity) (Collagen IV; 6 h of treatment): 1.68 ***
Collagen IV Degree of expression (Relative Quantity) (Collagen IV; 24 h of treatment): 2.81 **
Syndecan Degree of expression (Relative Quantity) (Syndecan; 6 h of treatment): 1.85 ns
Syndecan Degree of expression (Relative Quantity) (Syndecan; 24 h of treatment): 8.08 ***
Collagen III Degree of expression (Relative Quantity) (Collagen III; 6 h of treatment): 0.91 ns
Collagen III Degree of expression (Relative Quantity) (Collagen III; 24 h of treatment): 1.24 ns
LOXL Degree of expression (Relative Quantity) (LOXL; 6 h of treatment): 1.05 ns
LOXL Degree of expression (Relative Quantity) (LOXL; 24 h of treatment): 1.10 ns
Dermatopontin Degree of expression (Relative Quantity) (Dermatopontin; 6 h of treatment): 1.14 ns
Dermatopontin Degree of expression (Relative Quantity) (Dermatopontin; 24 h of treatment): 1.36 *
BGN Degree of expression (Relative Quantity) (BGN (Biglycan); 6 h of treatment): 1.28 ns
BGN Degree of expression (Relative Quantity) (BGN (Biglycan); 24 h of treatment): 2.92 ***
Collagen I Degree of expression (Relative Quantity) (Collagen I; 6 h of treatment): 0.84 ns
Collagen I Degree of expression (Relative Quantity) (Collagen I; 24 h of treatment): 2.30 *
Versican Degree of expression (Relative Quantity) (Versican; 6 h of treatment): 1.61 ns
Versican Degree of expression (Relative Quantity) (Versican; 24 h of treatment): 2.87 **
SPARC Degree of expression (Relative Quantity) (SPARC; 6 h of treatment): 1.28 ns
SPARC Degree of expression (Relative Quantity) (SPARC; 24 h of treatment): 2.00 ***
TNC Degree of expression (Relative Quantity) (TNC (Tenacin C); 6 h of treatment): 0.94 ns
TNC Degree of expression (Relative Quantity) (TNC (Tenacin C); 24 h of treatment): 1.79 *
Fibronectin Degree of expression (Relative Quantity) (Fibronectin; 6 h of treatment): 1.09 ns
Fibronectin Degree of expression (Relative Quantity) (Fibronectin; 24 h of treatment): 2.12 *
Collagen VII Degree of expression (Relative Quantity) (Collagen VII; 6 h of treatment): 1.96 ***
Collagen VII Degree of expression (Relative Quantity) (Collagen VII; 24 h of treatment): 3.07 ***
Elastin Degree of expression (Relative Quantity) (Elastin; 6 h of treatment): 0.72 ns
Elastin Degree of expression (Relative Quantity) (Elastin; 24 h of treatment): 3.65 **
CTNNA1 Degree of expression (Relative Quantity) (CTNNA1 (Catenin α); 6 h of treatment): 1.07 ns
CTNNA1 Degree of expression (Relative Quantity) (CTNNA1 (Catenin α); 24 h of treatment): 1.07 ns
